{
  "source": "paper PMC8284461",
  "about": "“Piperidine-4-Carboxamides Target DNA Gyrase in Mycobacterium abscessus” (Antimicrobial Agents and Chemotherapy, 2021)",
  "key": {"Plasma stability [1]": {"experiment": "Plasma stability", "format": "in vitro ADME, New Zealand white rabbits", "conditions": "rabbit plasma, 37°C, 1 μg/ml", "description": "(§1) The plasma stability assays were carried out using plasma from female CD-1 mice, New Zealand white rabbits, rhesus monkeys, and humans containing K2EDTA anticoagulant (Bioreclamation). Stability samples consisted of 5 μl of stock compound solution in 50:50 ACN/water and 95 μl of plasma to a final concentration of 1 μg/ml. The samples were incubated at 37°C with shaking; 10 μl of plasma was removed at each time point and combined with 100 μl of ACN/methanol 50:50 protein precipitation solvent containing internal standard (10 ng/ml verapamil). Chromatography for metabolite identification was performed the same as specified for pharmacokinetic sample analysis. Full scan total ion chromatograms (TIC) of plasma extracts were acquired using a Q Exactive high-resolution mass spectrometer (QE-HRMS) at 70,000 mass resolution. Thermo Fisher Compound Discoverer software was used to assist in identifying the 844-TFM metabolites from the QE-HRMS TIC mass spectrum. Figure S2 in the supplemental material illustrates the extracted ion chromatograms (XIC) of 844-TFM and the metabolites using 5 ppm mass accuracy before and after 12 h of incubation in mouse plasma."}, "[2]": {"test_system": "M. abscessus subsp. abscessus ATCC 19977 biofilm", "experiment": "Antibiofilm activity, MBEC biofilm assay", "format": "cell-based, Mycobacterium abscessus", "conditions": "1×, 4×, 8× MIC; surface-attached CFU after 2 and 3 days", "description": "The antibiofilm activity of 844 and 844-TMF was determined employing the MBEC 96-well Biofilm assay kit (19111; Innovotech, Edmonton, AB, Canada) as described previously ([15]) with minor modifications. Briefly, exponentially growing M. abscessus subsp. abscessus ATCC 19977 cultures were spun down at 3,200 × g for 10 min and washed with 7H9 broth without Tween 80 (‘7H9’). Bacteria were resuspended in ‘7H9’ to an OD600 of 0.0125, and 150 μl was dispensed into the wells of Innovotech 96-well plates. Pegs (protruding from the specialized lids of the Innovotech multiwell plates) were inserted into the bacterial suspensions in the wells, and the cultures were grown 24 h with shaking at 110 rpm at 37°C to allow attachment and growth of the bacteria on the surface of the pegs. […] Biofilm growth on the pegs was measured by CFU determination. The pegs were washed in 200 μl ‘7H9’ medium, removed, and placed in 1.7-ml microcentrifuge tubes (87003-294; VWR, Radnor, PA, USA) containing 500 μl PBS/Tween 80 (0.025%). The tubes were vortexed at 2,000 rpm for 90 s to detach and suspend the bacteria from the pegs before samples were serially diluted and plated onto 7H10 agar supplemented with 0.4% activated charcoal to determine CFU/peg."}, "[3]": {"experiment": "Mouse liver microsome stability", "format": "in vitro ADME", "description": "(§2) Kinetic solubility, parallel artificial membrane permeability assay (PAMPA) permeability, and stability in the mouse liver microsome assay were performed by BioDuro (Shanghai, China) according to standard protocols."}, "Plasma stability [4]": {"experiment": "Plasma stability", "format": "in vitro ADME, humans", "conditions": "human plasma, 37°C, 1 μg/ml", "description": "as §1"}, "[5]": {"test_system": "M. abscessus subsp. abscessus ATCC 19977 MXF^r-2 (GyrA D96N)", "experiment": "MIC, resistant mutant", "format": "cell-based, Mycobacterium abscessus", "conditions": "Mycobacteroides abscessus, ATCC19977"}, "[6]": {"test_system": "M. abscessus subsp. abscessus Bamboo 844^r-2 (GyrA D91N)", "experiment": "MIC, resistant mutant", "format": "cell-based, Mycobacterium abscessus", "conditions": "Mycobacteroides abscessus"}, "[7]": {"molecular_target": "recombinant M. abscessus wild-type DNA gyrase (Mycobacteroides abscessus, UniProt B1ME45+B1ME58)", "sequence (B1ME58 entry or part of it)": "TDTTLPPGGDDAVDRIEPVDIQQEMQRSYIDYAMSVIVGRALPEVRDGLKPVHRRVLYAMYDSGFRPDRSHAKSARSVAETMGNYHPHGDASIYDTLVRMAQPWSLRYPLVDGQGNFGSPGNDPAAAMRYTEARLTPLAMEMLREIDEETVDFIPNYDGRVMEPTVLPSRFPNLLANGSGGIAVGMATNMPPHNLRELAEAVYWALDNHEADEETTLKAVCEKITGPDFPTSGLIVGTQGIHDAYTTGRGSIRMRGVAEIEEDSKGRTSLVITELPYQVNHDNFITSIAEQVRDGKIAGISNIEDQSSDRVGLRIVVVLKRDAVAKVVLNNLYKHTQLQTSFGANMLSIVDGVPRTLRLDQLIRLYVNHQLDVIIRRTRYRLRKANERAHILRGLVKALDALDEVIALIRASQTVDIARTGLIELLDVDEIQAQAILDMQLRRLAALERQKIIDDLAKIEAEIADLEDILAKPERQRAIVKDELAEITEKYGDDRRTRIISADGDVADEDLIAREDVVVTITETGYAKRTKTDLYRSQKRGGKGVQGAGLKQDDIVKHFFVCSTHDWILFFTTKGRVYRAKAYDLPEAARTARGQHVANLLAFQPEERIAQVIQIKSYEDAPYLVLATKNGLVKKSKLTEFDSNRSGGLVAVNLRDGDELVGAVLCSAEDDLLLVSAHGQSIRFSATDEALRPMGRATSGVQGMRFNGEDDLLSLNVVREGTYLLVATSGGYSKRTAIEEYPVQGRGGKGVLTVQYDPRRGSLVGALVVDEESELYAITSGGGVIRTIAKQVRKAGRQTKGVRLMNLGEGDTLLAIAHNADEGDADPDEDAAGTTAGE", "sequence (B1ME45 entry or part of it)": "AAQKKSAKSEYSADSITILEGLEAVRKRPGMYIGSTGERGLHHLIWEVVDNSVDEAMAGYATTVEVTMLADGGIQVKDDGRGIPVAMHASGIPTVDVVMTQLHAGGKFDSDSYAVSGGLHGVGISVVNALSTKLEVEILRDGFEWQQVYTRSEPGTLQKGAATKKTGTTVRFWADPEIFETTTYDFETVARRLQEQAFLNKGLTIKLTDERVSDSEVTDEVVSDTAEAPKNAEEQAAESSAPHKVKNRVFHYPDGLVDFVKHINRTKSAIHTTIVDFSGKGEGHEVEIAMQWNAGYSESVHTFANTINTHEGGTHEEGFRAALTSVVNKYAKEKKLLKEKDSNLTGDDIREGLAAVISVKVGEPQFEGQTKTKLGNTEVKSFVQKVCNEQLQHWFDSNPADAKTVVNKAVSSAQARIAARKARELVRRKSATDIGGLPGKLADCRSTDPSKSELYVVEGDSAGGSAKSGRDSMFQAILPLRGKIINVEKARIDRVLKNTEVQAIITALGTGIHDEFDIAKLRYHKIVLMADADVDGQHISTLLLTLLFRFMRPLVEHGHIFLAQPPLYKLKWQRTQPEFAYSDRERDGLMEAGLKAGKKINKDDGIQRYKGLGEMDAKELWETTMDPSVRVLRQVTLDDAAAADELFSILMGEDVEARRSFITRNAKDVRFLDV", "experiment": "biochemical", "design": "species or system Mycobacterium abscessus"}, "[8]": {"experiment": "Parallel artificial membrane permeability assay (PAMPA)", "format": "in vitro ADME", "description": "as §2"}, "[9]": {"test_system": "M. abscessus subsp. abscessus ATCC 19977 MXF^r-3 (GyrA D96G)", "experiment": "MIC, resistant mutant", "format": "cell-based, Mycobacterium abscessus", "conditions": "Mycobacteroides abscessus, ATCC19977"}, "[10]": {"test_system": "M. abscessus subsp. abscessus Bamboo 844^r-3 (GyrB S473W)", "experiment": "MIC, resistant mutant", "format": "cell-based, Mycobacterium abscessus", "conditions": "Mycobacteroides abscessus"}},
  "data": [
    {"smiles": "COc1ccc2nccc(NC(=O)C3CCN(CCc4ccc(C(F)(F)F)cc4)CC3)c2n1", "note": "[844-TFM]", "values": [
      {"measurement": "remaining after 24 h", "setting": "Plasma stability [1]", "value": "approximately 80%"},
      {"measurement": "bactericidal activity against M. abscessus grown as biofilm", "setting": "[2]", "value": "bactericidal"},
      {"measurement": "CLint scaled", "setting": "[3]; liver microsomes, mouse hepatic microsomes, scaled", "value": 1050, "unit": "mL/min/kg"},
      {"measurement": "microsomal CLint", "setting": "[3]; liver microsomes, mouse hepatic microsomes, read-out: In vitro CLint", "value": 267, "unit": "µL/min/mg"},
      {"measurement": "t1/2", "setting": "[3]; mouse hepatic microsomes, in vitro", "value": 5.2, "unit": "min"},
      {"measurement": "CLhepatic", "setting": "[3]; mouse hepatic microsomes, scaled", "value": 82.9, "unit": "mL/min/kg"},
      {"measurement": "half-life", "setting": "[3]; mouse, liver microsomes, mouse hepatic microsomes, in vitro", "value": 5, "unit": "min"},
      {"measurement": "predicted extraction ratio", "setting": "[3]; mouse, clearance vs hepatic blood flow of 90 ml/min/kg", "value": "~1"},
      {"measurement": "remaining after 24 h", "setting": "Plasma stability [4]", "value": "approximately 80%"},
      {"measurement": "MIC", "setting": "[5]", "value": 2, "unit": "µM"},
      {"measurement": "MIC", "setting": "[6]", "value": "> 100", "unit": "µM"},
      {"measurement": "IC50 fold lower than the IC50 of parental 844", "setting": "[7]", "value": 2.4, "unit": "fold"},
      {"measurement": "IC50", "setting": "[7]; wild-type DNA gyrase, relaxed pBR322 substrate, read-out: IC50, supercoiling activity", "value": 1900, "unit": "nM"},
      {"measurement": "Papp", "setting": "[8]; PAMPA, pH 7.4, read-out: PAMPA Mean Pe", "value": 2, "unit": "×10⁻⁶ cm/s"},
      {"measurement": "PAMPA logPe", "setting": "[8]; pH 7.4", "value": "−5.7"},
      {"measurement": "PAMPA logPe", "setting": "[8]; −5.0 cm/s considered border between high and low permeability", "value": "−5.7", "unit": "cm/s"},
      {"measurement": "MIC", "setting": "[9]", "value": 1, "unit": "µM"},
      {"measurement": "MIC", "setting": "[10]", "value": 5, "unit": "µM"}
    ]}
  ]
}
